# Assay results from paper PMC11538350, “Synthetic studies on the tetrasubstituted D-ring of cystobactamids lead to potent terephthalic acid antibiotics” (Communications Chemistry, 2024).
# Columns and labels:
# E. ae. CIP 106754 = test: MIC assay; assay type: cell-based, Enterobacter aerogenes; conditions: Klebsiella aerogenes, CIP106754, read-out: MIC E. ae. CIP 106754
# Method: (§1) All cystobactamids were evaluated in MIC-assays on a panel of representative ESKAPE strains with focus on A. baumannii (Tables 1 and 2). Compared to our previous work[10],[17],[18], we specifically included more challenging test strains with known resistances against gyrase inhibitors.
# (§2) 2.1 Materials and Methods
# (§3) Strains were cultivated according to standard procedures. Bacterial cryo-cultures were
# (§4) resuspended into fresh MHBII (cation adjusted) medium. The resuspension
# (§5) assay plate (Corning, #3788).
# (§6) in parallel as a positive control. […]
# E. faec. DSM-17050 (VRE) = test: MIC assay; assay type: cell-based, Enterococcus faecium; conditions: Enterococcus; read-out: MIC E. faec. DSM-17050 (VRE)
# Method: as §1, §2, §3, §4, §5, §6
# A. baum. R835 = test: MIC assay; assay type: cell-based; conditions: Acinetobacter baumannii; read-out: MIC A. baum. R835
# Method: as §1, §2, §3, §4, §5, §6
# A. baum. ATCC BAA-1710 = test: MIC assay; assay type: cell-based; conditions: Acinetobacter baumannii, ATCCBAA1710; read-out: MIC A. baum. ATCC BAA-1710
# Method: as §1, §2, §3, §4, §5, §6
# A. baum. CIP-105742 = test: MIC assay; assay type: cell-based; conditions: Acinetobacter baumannii, CIP105742; read-out: MIC A. baum. CIP-105742
# Method: as §1, §2, §3, §4, §5, §6
# K. pneum. CIP-104298 = test: MIC assay; assay type: cell-based; conditions: Klebsiella pneumoniae, CIP104298; reference strain; read-out: MIC K. pneum. CIP-104298
# Method: as §1, §2, §3, §4, §5, §6
# E. coli LM705 = test: MIC assay; assay type: cell-based; conditions: Escherichia coli, LM705, read-out: MIC E. coli LM705
# Method: as §1, §2, §3, §4, §5, §6
# E. coli ATCC-25922 = test: MIC assay; assay type: cell-based; conditions: Escherichia coli, ATCC25922; reference strain; read-out: MIC E. coli ATCC-25922
# Method: as §1, §2, §3, §4, §5, §6
# A. baum. DSM-30008 = test: MIC assay; assay type: cell-based; conditions: Acinetobacter baumannii, DSM30008; reference strain; read-out: MIC A. baum. DSM-30008
# Method: as §1, §2, §3, §4, §5, §6
# P. ae. PA14 = test: MIC assay; assay type: cell-based; conditions: Pseudomonas aeruginosa, PA14; reference strain; read-out: MIC P. ae. PA14
# Method: as §1, §2, §3, §4, §5, §6
# P. ae. PA14ΔmexAB = test: MIC assay; assay type: cell-based; conditions: Pseudomonas aeruginosa, read-out: MIC P. ae. PA14ΔmexAB
# Method: as §1, §2, §3, §4, §5, §6
# K. pneum. R-1525 = test: MIC assay; assay type: cell-based; conditions: Klebsiella pneumoniae; read-out: MIC K. pneum. R-1525
# Method: as §1, §2, §3, §4, §5, §6
# [1] = system: S. pneum. DSM-11865 (PRSP); test: MIC assay; assay type: cell-based; conditions: Streptococcus pneumoniae; read-out: MIC S. pneum. DSM-11865 (PRSP)
# Method: as §1, §2, §3, §4, §5, §6
# S. aur. ATCC-29213 = test: MIC assay; assay type: cell-based; conditions: Staphylococcus aureus, ATCC29213; reference strain; read-out: MIC S. aur. ATCC-29213
# Method: as §1, §2, §3, §4, §5, §6
# A. baum. CIP-107292 = test: MIC assay; assay type: cell-based; conditions: Acinetobacter baumannii, CIP107292; read-out: MIC A. baum. CIP-107292
# Method: as §1, §2, §3, §4, §5, §6
# E. cloacae ATCC BAA-2468 = test: MIC assay; assay type: cell-based; conditions: Enterobacter cloacae, ATCCBAA2468; read-out: MIC E. cloacae ATCC BAA-2468
# Method: as §1, §2, §3, §4, §5, §6
# K. pneum. KP10581 = test: MIC assay; assay type: cell-based; conditions: Klebsiella pneumoniae; read-out: MIC K. pneum. KP10581
# Method: as §1, §2, §3, §4, §5, §6
# ESKAPE strains = test: MIC-assays on a panel of representative ESKAPE strains, summary in words; assay type: cell-based; conditions: summary of the MIC tables
# Method: as §1, §2, §3, §4, §5, §6
Structure (SMILES),MIC (E. ae. CIP 106754) [µg/mL],MIC (E. faec. DSM-17050 (VRE)) [µg/mL],MIC (A. baum. R835) [µg/mL],MIC (A. baum. ATCC BAA-1710) [µg/mL],MIC (A. baum. CIP-105742) [µg/mL],MIC (K. pneum. CIP-104298) [µg/mL],MIC (E. coli LM705) [µg/mL],MIC (E. coli ATCC-25922) [µg/mL],MIC (A. baum. DSM-30008) [µg/mL],MIC (P. ae. PA14) [µg/mL],MIC (P. ae. PA14ΔmexAB) [µg/mL],MIC (K. pneum. R-1525) [µg/mL],MIC [1] [µg/mL],MIC (S. aur. ATCC-29213) [µg/mL],MIC (A. baum. CIP-107292) [µg/mL],MIC (E. cloacae ATCC BAA-2468) [µg/mL],MIC (K. pneum. KP10581) [µg/mL],"antibacterial activity on the pathogen panel, in words (ESKAPE strains)"
"O=C(O)c1cn(C2CC2)c2cc(N3CCNCC3)c(F)cc2c1=O [CIP, ciprofloxacin, reference compound]",> 6.4,0.05 to 4,32,32,0.03 to 0.25,0.025 to 0.05,> 6.4,0.01 to 0.03,0.05 to 0.25,0.025 to 0.2,0.006 to 0.1,> 64,> 6.4,0.2 to 1,64,,,
"CO[C@@H](C(N)=O)[C@H](NC(=O)c1ccc(NC(=O)c2ccc(C#N)cc2)cc1)C(=O)Nc1ccc(C(=O)Nc2ccc(C(=O)Nc3ccc(C(=O)O)cc3)c(O)c2OC(C)C)cc1 [CN861 1, reference compound]",4,,64,8,0.25,16,0.64,0.25,1,16,1,16,,0.125,> 64,32,2,
"C#CCC(NC(=O)c1ccc(NC(=O)c2ccc(C#N)cc2)cc1)C(=O)Nc1ccc(C(=O)Nc2ccc(C(=O)Nc3ccc(C(=O)O)cc3)c(O)c2OC(C)C)cc1 (stereo not shown) [CN-CC-861 2, reference compound]",0.125 to 4,< 0.03,1,0.06 to 0.25,0.02,8,0.03 to 0.2,,0.02 to 0.03,0.5 to 16,0.03 to 0.5,,,0.02,0.5 to 1,,0.06 to 0.25,
C#CC[C@H](NC(=O)c1ccc(NC(=O)c2ccc(C#N)cc2)cc1)C(=O)Nc1ccc(C(=O)Nc2cc(O)c(C(=O)Nc3ccc(C(=O)O)cc3)cc2OC(C)C)cc1 [Cmpd. 3],> 64,> 64,> 64,> 64,2,> 64,> 64,1,1,> 64,> 64,> 64,> 64,> 64,> 64,> 64,> 64,
C#CCC(NC(=O)c1ccc(NC(=O)c2ccc(C#N)cc2)cc1)C(=O)Nc1ccc(C(=O)Nc2ccc(C(=O)Nc3ccc(C(=O)O)cc3)c(Cl)c2OC(C)C)cc1 (stereo not shown) [Cmpd. 5],> 64,> 64,> 8,> 8,> 8,> 64,> 64,> 64,> 8,> 64,> 64,> 64,> 64,> 64,> 8,> 64,> 64,abolished the activity in all tested strains
C#CC[C@H](NC(=O)c1ccc(NC(=O)c2ccc(C#N)cc2)cc1)C(=O)Nc1ccc(C(=O)Nc2ccc(C(=O)Nc3ccc(C(=O)O)cc3)c(Br)c2OC(C)C)cc1 [Cmpd. 6],> 64,> 64,> 8,> 8,> 8,> 64,> 64,> 64,> 8,> 64,> 64,> 64,> 64,> 64,> 8,> 64,> 64,abolished the activity in all tested strains
C#CC[C@H](NC(=O)c1ccc(NC(=O)c2ccc(C#N)cc2)cc1)C(=O)Nc1ccc(C(=O)Nc2ccc(C(=O)Nc3ccc(C(=O)O)cc3)c(O)c2OC)cc1 [Cmpd. 10],4,,4,0.25,,,< 0.03,< 0.03,,,,32,< 0.03,0.5,4,16,1,
C#CC[C@H](NC(=O)c1ccc(NC(=O)c2ccc(C#N)cc2)cc1)C(=O)Nc1ccc(CNc2ccc(C(=O)Nc3ccc(C(=O)O)cc3)c(O)c2OC(C)C)cc1 [Cmpd. 40],> 64,0.25,> 8,0.5,0.25,> 64,> 64,0.5 to 1,0.5,> 64,2,> 64,> 64,0.5 to 1,> 8,> 64,1,
C#CC[C@H](NC(=O)c1ccc(NC(=O)c2ccc(C#N)cc2)cc1)C(=O)Nc1ccc(C(=O)Nc2ccc3c(=O)n(-c4ccc(C(=O)O)cc4)c(C)nc3c2OC(C)C)cc1 [Cmpd. 45a],> 64,2 to 4,> 8,0.5 to 1,4,> 64,> 64,2 to 4,8,> 64,16 to 32,> 64,> 64,4,> 8,> 64,4,
C#CC[C@H](NC(=O)c1ccc(NC(=O)c2ccc(C#N)cc2)cc1)C(=O)Nc1ccc(C(=O)Nc2ccc3c(=O)n(-c4ccc(C(=O)O)cc4)cnc3c2OC(C)C)cc1 [Cmpd. 45b],> 64,1,> 8,> 8,2,> 64,> 64,1,1 to 2,> 64,> 64,> 64,> 64,8,> 8,> 64,16,
CO[C@@H](C(N)=O)[C@H](NC(=O)c1ccc(NC(=O)c2ccc(C#N)cc2)cc1)C(=O)Nc1ccc(C(=O)Nc2ccc(C(=O)N(C)c3ccc(C(=O)O)cc3)c(O)c2OC(C)C)cc1 [Cmpd. 46],> 64,> 64,> 8,> 8,> 8,> 64,> 64,< 0.03,> 8,> 64,> 64,> 64,> 64,> 64,> 8,> 64,> 64,
C#CC[C@H](NC(=O)c1ccc(NC(=O)c2ccc(C#N)cc2)cc1)C(=O)Nc1ccc(C(=O)Nc2ccc(-c3ncc4cc(C(=O)O)ccc4n3)c(O)c2OC(C)C)cc1 [Cmpd. 47],,,> 64,,> 64,> 64,> 64,,> 64,> 64,> 64,,,> 64,> 64,,> 64,
C#CC[C@H](NC(=O)c1ccc(NC(=O)c2ccc(C#N)cc2)cc1)C(=O)Nc1ccc(C(=O)Nc2ccc(-c3nc4ccc(C(=O)O)cc4[nH]3)c(O)c2OC(C)C)cc1 [Cmpd. 48],> 64,2,> 8,> 8,> 8,> 64,> 64,64,8,> 64,> 64,> 64,> 64,4,> 8,> 64,16,
